Results on three compounds are retold here after patent US20230348467A1, “Heteroaryl Derivative, Preparation Method Therefor, And Use Thereof” (Zhejiang Hisun Pharmaceutical Co., Ltd., priority 2020, published 2023).

Data set [1] in a line: Pharmacokinetic test in ICR mice, intragastric (Test Example 4). Type of data set: in vivo. The conditions noted are these: PO; for AUC(0-inf) / Cmax: mouse, 10 mg/kg per table (method text says 1 mg/kg), plasma; for AUC(0-inf): read-out: Area under curve AUC0-∞; for Cmax: read-out: Blood concentration Cmax. The source says: ICR mice were used as test animals, and LC/MS/MS methods was used to determine the drug concentrations at different moments in plasma of mice administered by intragastric injection with the compound 5 and the compound 6 of the present invention, and to study the pharmacokinetic characteristics of the compounds of the present invention in mice. An appropriate amount of drug was weighed, added with an appropriate amount of sodium carboxymethylcellulose (CMC-Na, containing 0.5% Tween 80), vortexed, and ultrasonically prepared into 1 mg/kg suspension. The ICR mice in the intragastric group of each compound to be tested (9 mice in each group) were fasted overnight and then administered by intragastric injection (PO, […], and administration volume of 10 mL/kg), and ate 4 hours after administration. About 0.2 mL of blood was collected via jugular vein before administration and 0.083 hour, 0.25 hour, 0.5 hour, 1 hour, 2 hours, 4 hours, 8 hours and 24 hours after administration, and heparin sodium was used for anticoagulation. The collected blood samples were placed on ice, and plasma was separated by centrifugation (centrifugation condition: 1,500 g, 10 minutes). The collected plasma samples were stored at −40° C. to −20° C. before analysis. LC-MS/MS was used to determine the contents of the compounds to be tested in mouse plasma after intragastric administration.

The subject of data set [2] is NCI-H358 cells (containing KRAS G12C mutation). The data set is described as follows: Inhibition of NCI-H358 cell proliferation (CellTiter-Glo). Format: cell-based. The conditions noted are these: Homo sapiens, NCI-H358, 120 h, read-out: IC50(nM)/NCI-H358. On the procedure:
The following method was used to determine the effects of the compounds of the present invention on NCI-H358 cell proliferation. NCI-H358 cells (containing KRAS G12C mutation) were purchased from Cell Resource Center of Shanghai Institutes for Biological Sciences, Chinese Academy of Sciences, and cultured in RPMI 1640 mediums containing 10% fetal bovine serum, 100 U penicillin, 100 μg/mL streptomycin and 1 mM Sodium Pyruvate. The activities of the cells were determined by CellTiter-Glo® Luminescent Cell Viability Assay kit (Promega, article number: G7573).
(§1) The experimental method was operated according to the steps in the kit instruction, and was briefly described as follows: test compounds were first dissolved in DMSO to prepare storage solutions of 10 mM, and then diluted in mediums, prepared as test samples. The final concentrations of the test compounds were 10,000 nM to 1.52 nM. The cells in logarithmic phase were inoculated in a 96-well cell culture plate with 1,000 cells per well, after cultured overnight in 5% CO2 incubator at 37° C., the test compounds were added to the incubator to continue the culture for 120 hours. After the culture, 50 μL of CellTiter-Glo detection solution was added to each well, shaken for 5 minutes, and then stood for 10 minutes. Then, a Luminescence mode was used to read the luminescence values of each well of the samples on a microplate reader. Compared with the numerical value of the control group (0.3% DMSO), the percentage inhibition rates of the compounds at each concentration were calculated, and the IC50 values of the compounds inhibiting cell proliferation were obtained by performing nonlinear regression analysis with logarithmic values of the compound concentration—inhibition rate by GraphPad Prism 5 software, which was shown in Table 3.
Background: ATP-based viability assays read luminescence as a measure of living cells.

The subject of data set [3] is NCI-H23 cells (containing KRAS G12C mutation). Description: Inhibition of NCI-H23 cell proliferation (CellTiter-Glo). Type of data set: cell-based. The following applies: Homo sapiens, 120 hours culture. On the procedure:
The following method was used to determine the effects of the compounds of the present invention on NCI-H23 cell proliferation. NCI-H23 cells (containing KRAS G12C mutation) were purchased from Cell Resource Center of Shanghai Institutes for Biological Sciences, Chinese Academy of Sciences, and cultured in RPMI 1640 mediums containing 10% fetal bovine serum, 100 U penicillin, 100 μg/mL streptomycin and 1 mM Sodium Pyruvate. The activities of the cells were determined by CellTiter-Glo® Luminescent Cell Viability Assay kit (Promega, article number: G7573).
as §1, with “value of a control group” for “value of the control group”, “in Table 2.” for “in Table 3.”

The target in data set [4] is recombinant human full-length SHP2 (Homo sapiens (Human), UniProt Q06124). Description: Allosteric inhibition of full-length SHP2 enzyme (DiFMUP fluorescence). Format: biochemical. The following applies: full-length SHP2 0.5 nM, activating peptide 0.5 uM, DiFMUP substrate. The source says:
The following method was used to determine the inhibition degrees of the compounds of the present invention on the activity of recombinant human full-length SHP2 in vitro. SHP2 was allosterically activated by the binding of di-tyrosyl-phosphorylated peptide to a Src homologous 2(SH2) domain of SHP2. An activation step of the latter leads to the self-inhibitory interface release of SHP2, and then activates SHP2 protein tyrosine phosphatase (PTP), which might be used for substrate recognition and reaction catalysis.
The experimental process was briefly described as follows: Test compounds were first dissolved in DMSO to prepare storage solutions. […] Then, the compounds to be tested were added in a concentration range of 0.00004-10 uM and incubated at 25° C. for 60 minutes. Then DiFMUP (Thermo, D6567) was added in the reaction and incubated at 25° C. for 30 minutes. After incubation, readings were taken using a microplate reader (BMG) with excitation and emission wavelengths of 340 nm and 450 nm, respectively.

Data set [5] relates to NCI-H358 subcutaneous transplanted tumors. Description: Growth inhibition of subcutaneous transplanted NCI-H358 tumors in BALB/c nude mice. Type of data set: in vivo. On the procedure:
To evaluate antitumor effects and safety of the compounds of Example 27 in an animal model of BALB/c nude mice with subcutaneous transplanted NCI-H358 cell lines
An approximate amount of the compound of Example 27 was weighed, added with an approximate amount of DMA (dimethylacetamide) to fully dissolve the compound, then added with Solutol HS 15 and Saline (DMA: Solutol HS 15: Saline=5:10:85 (v/v/v)) in turn, and mixed evenly by vortex, and the configuration concentration was 3 mg/mL.
BALB/c nude mice, female, 6-7 weeks old (the age of mice when tumor cells were inoculated), 12 mice, purchased from Jiangsu GemPharmatech.
NCI-H358 cells were cultured in RPMI 1640 mediums containing 10% fetal bovine serum, 1% sodium pyruvate and 1% glutamine. NCI-H358 cells in exponential growth period were collected, and resuspend in PBS to a suitable concentration for subcutaneous tumor inoculation in nude mice.
12 female BALB/c nude mice were subcutaneously inoculated with about 3×10^6 NCI-H358 cells on the right sides of their backs. When the average volume of tumors reaches about 100 mm^3 to 200 mm^3, the mice were randomly divided according to tumor sizes with 6 mice in each group. The animals in each group were given the subjects once a day (qd) according to the animal body weights at a fixed time every day according to the table below, administered orally (po) for 10 consecutive days, and the daily body weights were recorded.
After tumor inoculation, routine monitoring included the effects of tumor growth and treatment on the normal behaviors of the animals, specifically the mobility, feeding and drinking, weight gain or loss, eyes, coat and other abnormalities of the experimental animals.
(1) TV (tumor volume)=½×a×b^2, wherein a and b represent the length and the width of the tumor respectively;
(2) RTV (relative tumor volume)=Vt/V0, wherein V0 is the tumor volume measured at the time of grouping administration (i.e., d0), and Vt is the tumor volume at each measurement;
(3) Relative tumor proliferation rate T/C (%)=TRTV/CRTV×100%, wherein TRTV is the RTV of the treatment group and CRTV is the RTV of the control group;

Data set [6] can be described thus: Pharmacokinetic test of mice, intragastric (Test Example 5). Type of data set: in vivo. The conditions noted are these: ICR mice, PO, 5 mg/kg. The source says: ICR mice were used as test animals, and LC/MS/MS methods was used to determine the drug concentrations at different moments in plasma of mice administered by intragastric injectiion with the compound 27 of the present invention, and to study the pharmacokinetic characteristics of the compound of the present invention in mice. An appropriate amount of drug compound 27 was weighed, added with an appropriate amount of sodium carboxymethylcellulose (CMC-Na, containing 0.5% Tween 80), vortexed, and ultrasonically prepared into 0.5 mg/kg suspension. The ICR mice in the intragastric group of each compound to be tested (9 mice in each group) were fasted overnight and then administered by intragastric injection (PO, administration dose of the compound 27 was 5 mg/kg, and administration volume of the compound 27 was 10 mL/kg), and ate 4 hours after administration. About 0.2 mL of blood was collected via jugular vein before administration and 0.083 hour, 0.25 hour, 0.5 hour, 1 hour, 2 hours, 4 hours, 8 hours, 12 hours and 24 hours after administration, and heparin sodium was used for anticoagulation. The collected blood samples were placed on ice, and plasma was separated by centrifugation (centrifugation condition: 1,500 g, 10 minutes). The collected plasma samples were stored at −40° C. to −20° C. before analysis. LC-MS/MS was used to determine the content of the compound to be tested in mouse plasma after intragastric administration.

Where [7] appears, read: Day 10, 30 mg/kg po qd for 10 days.

recombinant human full-length SHP2, sequence (Q06124 whole entry): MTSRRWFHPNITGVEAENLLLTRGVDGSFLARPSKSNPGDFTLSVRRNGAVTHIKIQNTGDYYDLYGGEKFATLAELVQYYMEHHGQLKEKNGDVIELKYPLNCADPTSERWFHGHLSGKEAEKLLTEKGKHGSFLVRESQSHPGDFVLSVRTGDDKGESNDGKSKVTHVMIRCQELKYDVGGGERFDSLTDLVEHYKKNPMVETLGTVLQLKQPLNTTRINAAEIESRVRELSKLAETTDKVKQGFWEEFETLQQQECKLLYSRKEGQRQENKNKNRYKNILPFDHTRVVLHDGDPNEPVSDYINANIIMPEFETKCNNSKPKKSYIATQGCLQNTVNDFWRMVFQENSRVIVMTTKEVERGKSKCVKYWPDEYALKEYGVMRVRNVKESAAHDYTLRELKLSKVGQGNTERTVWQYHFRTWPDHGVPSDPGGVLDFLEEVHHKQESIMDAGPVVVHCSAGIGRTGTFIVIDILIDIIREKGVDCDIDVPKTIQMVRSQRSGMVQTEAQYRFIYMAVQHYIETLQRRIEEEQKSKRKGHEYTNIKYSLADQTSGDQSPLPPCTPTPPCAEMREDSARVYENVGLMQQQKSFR

As for `NC(=O)c1nc(N2CCC3(CC2)Cc2ccccc2[C@H]3N)nc2[nH]nc(-c3cccc(Cl)c3Cl)c12` [Example 5, (S)-6-(1-amino-1,3-dihydrospiro[indene-2,4′-piperidin]-1′-yl)-3-(2,3-dichlorophenyl)-1H-pyrazolo[3,4-d]pyrimidine-4-carboxamide], in data set [1], the “Pharmacokinetic properties (conclusion in words)” value (shortened to “Pharmacokinetic properties”) is listed as “good pharmacokinetic properties”, the AUC(0-inf) is 31.3 µg·h/mL and the Cmax turned out to be 2.11 µg/mL. Besides, the IC50 in data set [2] came to 27 nM. For the same compound, the IC50 in data set [3] was 143 nM. The IC50 in data set [4] was 0.001 µM.

As for `NC(=O)c1nc(N2CCC(N)(c3ccccc3)CC2)nc2[nH]nc(-c3cccc(Cl)c3Cl)c12` [Example 6, 6-(4-amino-4-phenylpiperidin-1-yl)-3-(2,3-dichlorophenyl)-1H-pyrazolo[3,4-d]pyrimidine-4-carboxamide], in data set [1], the “Pharmacokinetic properties” value is given as “good pharmacokinetic properties”, the AUC(0-inf) came to 18.5 µg·h/mL and the Cmax worked out at 1.19 µg/mL. For the same compound, the IC50 in data set [2] stood at 19 nM. Moreover, in data set [3], the IC50 is 61 nM. In data set [4], the IC50 was 0.004 µM.

One may read the Tmax as the time from dosing to the highest level. As to `NC(=O)c1nc(N2CCC(N)(c3ccccc3)CC2)nc2[nH]nc(-c3ccnc(Cl)c3Cl)c12` [Example 27, 6-(4-amino-4-phenylpiperidin-1-yl)-3-(2,3-dichloropyridin-4-yl)-1H-pyrazolo[3,4-d]pyrimidine-4-carboxamide], the “Growth inhibition effect on NCI-H358 tumor-bearing mice (in words)” value in data set [5] (30 mg/kg) is “obvious growth inhibition effects”. Further, the Body weight change result in data set [5] (30 mg/kg po qd for 10 days) is given as “no obvious change in body weight”. For the same compound, the “Tumor volume (mm^3, mean value ± standard error) Day 0” value in data set [5] (Day 0 (at grouping), 30 mg/kg po qd group) is on record as 138 ± 14 mm^3. For the same compound, the “TGI % Day 10” value in data set [5] (setting [7]) is 55.6%. In addition, the “Tumor volume (mm^3, mean value ± standard error) Day 10” value in data set [5] (setting [7]) worked out at 155 ± 22 mm^3. For the same compound, the IC50 in data set [2] was determined as 37 nM; in data set [3] it was 167 nM; in data set [4], 0.007 µM. In addition, the “Pharmacokinetic properties” value in data set [6] is listed as “good pharmacokinetic properties”. In addition, in data set [6] (mouse, plasma, read-out: Area under curve AUC0-∞), the AUC(0-inf) is 2.72 µg·h/mL. Also, the Cmax in data set [6] (mouse, plasma, read-out: Blood concentration Cmax) was 0.285 µg/mL. Moreover, the time of peak concentration (Tmax) in data set [6] (mouse, plasma, read-out: Peak time Tmax) turned out to be 8 h.
